We go through three compounds from article PMC8890504, “Evolution of Brain-Expressed Biogenic Amine Receptors into Olfactory Trace Amine-Associated Receptors” (Molecular Biology and Evolution, 2022).

The target in one assay is shark TAARS1b (Chiloscyllium punctatum, UniProt A0A401S5C1). Put plainly: Cell-based receptor activation reporter assay (SEAP / Dual-Glo luciferase). Also on record: species or system bamboo shark. The protocol: (§1) Fluorescence was measured with a BioTek Microplate reader.
The next assay deals with T1, mouse TAAR5 (Mus musculus, UniProt Q5QD14).
T1 construct: bovine rhodopsin N-terminal 20 amino acids (Rho tag); expressed in transfected cells; host or cells: HEK293(T) (SEAP assay) or Hana3A (Dual-Glo assay)
Described as above. The protocol: as §1

A further assay deals with T2, mouse TAAR8c (Mus musculus, UniProt Q5QD05).
T2 construct: bovine rhodopsin N-terminal 20 amino acids (Rho tag); expressed in transfected cells; host or cells: HEK293(T) (SEAP assay) or Hana3A (Dual-Glo assay)
Described as above. Here is the method: as §1

A further assay has as its system zebrafish TAAR13c. Also on record: method as in Hussain et al. 2013. Conditions: ref Hussain et al. 2013; cited from earlier work.
Assay [1] concerns TARLL2a (also called TAAR346a). Also on record: method as in Scott et al. 2019. Conditions: ref Scott et al. 2019; cited from earlier work.
For a further assay, the system named is mouse TAAR9. Also on record: method as in Saraiva et al. 2016. To be noted: ref Saraiva et al. 2016; cited from earlier work.
The subject of the next assay is cat TAAR9. Put plainly: Cell-based receptor activation reporter assay (SEAP / Dual-Glo luciferase). Conditions: table S3. Here is the method:
as §1
Background: Reporter assays use an easily measured gene product as a stand-in for the process of interest.

In the next assay the target is T3, rabbit TAAR9 (Oryctolagus cuniculus, UniProt G1SUU9).
T3 construct: Rho tag (N-terminal 20 aa of bovine rhodopsin); expressed in transfected cells; host or cells: HEK293T (SEAP assay) or Hana3A (Dual-Glo luciferase assay)
T3 sequence (G1SUU9 1-348): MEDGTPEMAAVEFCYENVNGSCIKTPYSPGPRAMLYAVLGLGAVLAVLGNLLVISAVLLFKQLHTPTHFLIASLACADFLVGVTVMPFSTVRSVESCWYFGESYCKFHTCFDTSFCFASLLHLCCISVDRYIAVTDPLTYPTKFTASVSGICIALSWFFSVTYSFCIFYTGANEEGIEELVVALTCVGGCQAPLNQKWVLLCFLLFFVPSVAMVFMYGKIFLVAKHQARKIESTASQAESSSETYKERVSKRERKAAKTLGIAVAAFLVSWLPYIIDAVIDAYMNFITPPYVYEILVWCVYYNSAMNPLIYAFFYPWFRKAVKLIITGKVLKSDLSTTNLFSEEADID
The description is as above. To be noted: table S3. The protocol:
as §1

The target of a further assay is T4, rat TAAR9 (Rattus norvegicus, UniProt Q923Y6).
T4 construct: bovine rhodopsin N-terminal 20 amino acids (Rho tag); expressed in transfected cells; host or cells: HEK293(T) (SEAP assay) or Hana3A (Dual-Glo assay)
T4 sequence (Q923Y6 1-338): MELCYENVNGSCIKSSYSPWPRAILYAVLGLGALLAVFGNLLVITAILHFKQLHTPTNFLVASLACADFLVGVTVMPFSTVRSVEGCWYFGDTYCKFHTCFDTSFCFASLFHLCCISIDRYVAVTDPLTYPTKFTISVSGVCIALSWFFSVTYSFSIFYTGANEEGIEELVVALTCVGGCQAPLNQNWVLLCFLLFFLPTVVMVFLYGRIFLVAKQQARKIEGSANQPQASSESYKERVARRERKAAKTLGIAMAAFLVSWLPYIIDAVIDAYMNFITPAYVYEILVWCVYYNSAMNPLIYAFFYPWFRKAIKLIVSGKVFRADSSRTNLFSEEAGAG
Described as above. To be noted: table S3. Here is the method:
as §1

In another assay the target is T5, hamster TAAR9 (Mesocricetus auratus, UniProt A0A1U7R5X1).
T5 construct: Rho tag (N-terminal 20 aa of bovine rhodopsin); expressed in transfected cells; host or cells: HEK293T (SEAP assay) or Hana3A (Dual-Glo luciferase assay)
T5 sequence (A0A1U7R5X1 1-348): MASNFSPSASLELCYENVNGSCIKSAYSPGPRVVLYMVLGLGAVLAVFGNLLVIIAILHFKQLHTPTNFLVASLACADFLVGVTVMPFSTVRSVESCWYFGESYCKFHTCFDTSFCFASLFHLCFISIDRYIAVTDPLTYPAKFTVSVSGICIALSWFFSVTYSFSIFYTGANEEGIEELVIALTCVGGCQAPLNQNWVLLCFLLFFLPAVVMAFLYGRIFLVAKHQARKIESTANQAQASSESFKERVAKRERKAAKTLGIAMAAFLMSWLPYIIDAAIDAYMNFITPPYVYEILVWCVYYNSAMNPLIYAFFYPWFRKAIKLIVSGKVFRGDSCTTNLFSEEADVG
The description is as above. Conditions: table S3. The protocol:
as §1

A further assay has as its target TARLL3h (Petromyzon marinus, UniProt A0A678XJN9). The description is as above. Also on record: species or system sea lamprey. The protocol: as §1
For the next assay, the system named is TARLL3h Y3.33A. The experiment in a line: Site-directed mutagenesis, cell-based receptor activation. Also on record: species or system sea lamprey. To be noted: mutation of Tyr3.33 to alanine; ligand per fig. S9C. The protocol:
(§2) Recognition of diamines in TAARs involves two aspartic acids, Asp^3.32 and Asp^5.42 ([Li et al. 2015]; [Sharma et al. 2016]). However, although Asp^3.32 is retained in TARLL3h, Asp^5.42 is not found, implying a distinct diamine recognition mechanism in TARLL3h. To investigate this further, we performed homology modeling and ligand docking in TARLL3h. In addition to Asp^3.32 that forms a salt bridge with N,N,N′,N′-tetramethyl-1,4-butanediamine or N,N,N′,N′-tetramethyl-1,3-propanediamine, Tyr^3.33 binds to the other amino group through pi–cation interactions in TARLL3h (fig. 4D). […] To verify the docking results, we performed site-directed mutagenesis in TARLL3h.
as §1

Another assay has as its system TARLL3h D3.32A. Described as above. Also on record: species or system sea lamprey. To be noted: mutation of Asp3.32 to alanine; ligand per fig. S9C. Here is the method: as §2, §1
Another assay deals with TARLL3h Y3.33F. Described as above. Also on record: species or system sea lamprey. To be noted: mutation of Tyr3.33 to phenylalanine; ligand per fig. S9C. Here is the method: as §2, §1

Sequence of TARLL3h (A0A678XJN9 entry or part of it): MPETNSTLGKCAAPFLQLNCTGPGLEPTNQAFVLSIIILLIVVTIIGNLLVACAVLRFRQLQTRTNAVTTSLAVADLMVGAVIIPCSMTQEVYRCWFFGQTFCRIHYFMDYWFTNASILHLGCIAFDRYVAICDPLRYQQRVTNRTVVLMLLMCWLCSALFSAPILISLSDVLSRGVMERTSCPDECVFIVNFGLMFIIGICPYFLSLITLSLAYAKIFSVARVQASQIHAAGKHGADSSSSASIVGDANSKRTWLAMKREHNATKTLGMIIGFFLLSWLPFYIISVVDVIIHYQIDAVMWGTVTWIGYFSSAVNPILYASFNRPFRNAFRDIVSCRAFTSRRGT
Sequence of shark TAARS1b (A0A401S5C1 entry or part of it): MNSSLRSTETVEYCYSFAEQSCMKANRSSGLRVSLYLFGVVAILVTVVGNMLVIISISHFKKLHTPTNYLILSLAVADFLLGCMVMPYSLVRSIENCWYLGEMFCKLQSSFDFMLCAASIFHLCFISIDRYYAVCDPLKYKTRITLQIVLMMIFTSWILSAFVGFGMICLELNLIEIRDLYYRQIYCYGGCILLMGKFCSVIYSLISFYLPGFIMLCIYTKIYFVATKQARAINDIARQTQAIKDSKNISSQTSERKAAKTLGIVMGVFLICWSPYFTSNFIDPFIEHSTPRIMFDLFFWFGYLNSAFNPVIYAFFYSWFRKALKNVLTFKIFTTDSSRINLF
T1 sequence (Q5QD14 whole entry): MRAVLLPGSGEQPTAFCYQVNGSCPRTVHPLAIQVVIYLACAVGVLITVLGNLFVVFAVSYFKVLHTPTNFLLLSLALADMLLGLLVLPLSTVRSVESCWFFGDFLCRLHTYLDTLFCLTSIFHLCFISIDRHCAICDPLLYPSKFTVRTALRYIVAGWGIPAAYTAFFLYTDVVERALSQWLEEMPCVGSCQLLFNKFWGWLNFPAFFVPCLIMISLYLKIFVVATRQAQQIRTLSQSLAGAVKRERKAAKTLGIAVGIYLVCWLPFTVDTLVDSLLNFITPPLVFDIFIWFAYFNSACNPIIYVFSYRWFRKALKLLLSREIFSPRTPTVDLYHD
T2 sequence (Q5QD05 whole entry): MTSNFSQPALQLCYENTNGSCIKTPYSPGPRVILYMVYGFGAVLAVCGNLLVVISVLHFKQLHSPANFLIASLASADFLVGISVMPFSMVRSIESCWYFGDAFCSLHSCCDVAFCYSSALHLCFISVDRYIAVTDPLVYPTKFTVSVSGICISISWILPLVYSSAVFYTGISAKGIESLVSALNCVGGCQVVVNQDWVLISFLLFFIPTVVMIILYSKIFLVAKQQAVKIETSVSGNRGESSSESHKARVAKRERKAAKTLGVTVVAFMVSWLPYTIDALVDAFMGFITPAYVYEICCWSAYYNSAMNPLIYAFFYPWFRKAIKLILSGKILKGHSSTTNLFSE

For the compound `CN1CCCCC1` [1-methylpiperidine], the EC50 on shark TAARS1b is 17.6 µM; on mouse TAAR5 it was 8.2 µM; at mouse TAAR8c, 1.5 µM.
In the case of `NCCCCCN` [Cadaverine, cadaverine], the “activation of TAAR13c” value in the assay on zebrafish TAAR13c is given as “activates”. The “ligand recognition by TARLL2a” value in assay [1] is listed as “recognize”. In addition, the “ligand recognition by mouse TAAR9” value in the assay on mouse TAAR9 was “can recognize”. For the same compound, the “activation of TAAR9” value in the assay on cat TAAR9, on rabbit TAAR9, on rat TAAR9 and on hamster TAAR9 was “activation” in each case.
For `CN(C)CCCCN(C)C` [N,N,N',N'-tetramethyl-1,4-butanediamine, N,N,N′,N′-tetramethyl-1,4-butanediamine], the concentration for a half-maximal effect (EC50) on TARLL3h (TARLL3h) came to 40.4 µM. In addition, the “ligand recognition by TARLL3h” value on TARLL3h (fig. 4C) is “recognizes”. For the same compound, the “receptor activity of TARLL3h mutant Y3.33A” value in the assay on TARLL3h Y3.33A is listed as “completely eliminated the receptor activity”. Also, in the assay on TARLL3h D3.32A, the “receptor activity of TARLL3h mutant D3.32A” value was “completely eliminated the receptor activity”. For the same compound, the “EC50 of TARLL3h mutant Y3.33F relative to wild type receptor” value in the assay on TARLL3h Y3.33F is “EC50 three times higher than wild type receptor”.

By EC50 is commonly meant the concentration at which the effect is half-maximal. Low values mean higher potency in that assay, high ones lower potency in that assay.
